Earlier results on five molecules are cited in patent US11504321B2, “Process of coloring keratinous material comprising the use of an organosilicon compound, an effect pigment, a further coloring compound and a film-forming polymer II” (Henkel AG & Co. KGaA, priority 2019, dated 2022).

For the data set the following is noted: for solubility in water: 25° C.

Turning to `CCN(Cc1cccc(S(=O)(=O)[O-])c1)c1ccc(C(=C2C=CC(=[N+](CC)Cc3cccc(S(=O)(=O)[O-])c3)C=C2)c2ccccc2S(=O)(=O)[O-])cc1.[Na+].[Na+]` [Acid Blue 9], the solubility in water result is recorded as “more than 20 % by weight”.

On to `O=S(=O)([O-])c1ccc(N=Nc2c(O)ccc3ccccc23)cc1.[Na+]` [Acid Orange 7, sodium salt of 4-[(2-hydroxy-1-naphthyl)azo]benzene sulphonate], for which the solubility in water entry is recorded as “more than 7 g/L”.

In the case of `Nc1cc(S(=O)(=O)[O-])cc2cc(S(=O)(=O)[O-])c(N=Nc3ccccc3)c(O)c12.[Na+].[Na+]` [Acid Red 33, disodium salt of 5-amino-4-hydroxy-3-(phenylazo)-naphthalene-2,7-disulphonate], the solubility in water is 2500 µg/mL.

In the case of `O=C([O-])c1c(Cl)c(Cl)c(Cl)c(Cl)c1-c1c2c(Br)cc(=O)c(Br)c-2oc2c(Br)c(O)cc(Br)c12.O=C([O-])c1c(Cl)c(Cl)c(Cl)c(Cl)c1-c1c2c(Br)cc(=O)c(Br)c-2oc2c(Br)c(O)cc(Br)c12.[Na+].[Na+]` [Acid Red 92, disodium salt of 3,4,5,6-tetrachloro-2-(1,4,5,8-tetrabromo-6-hydroxy-3-oxoxanthen-9-yl)benzoic acid], the solubility in water result is given as “greater than 10 g/L”.

Consider `O=C([O-])C1=NN(c2ccc(S(=O)(=O)[O-])cc2)C(=O)C1N=Nc1ccc(S(=O)(=O)[O-])cc1.[Na+].[Na+].[Na+]` (centres unmarked) [Acid Yellow 23, trisodium salt of 4,5-dihydro-5-oxo-1-(4-sulfophenyl)-4-((4-sulfophenyl)azo)-1H-pyrazole-3-carboxylic acid], for which the “solubility in water (in words)” value (at 25° C.) was “highly soluble in water”.
